# Assay results as given in patent US6589563B2 (Nanodelivery, Inc., priority 1999, dated 2003).
# Test system: secretory IgA and serum IgG antibodies
# Assay: Oral immunization with OVA nanoparticles, ELISA of secretory IgA and serum IgG antibodies
# Type: in vivo, male Sprague-Dawley adult rats
# Details: immunizations at week 0 and week 4
# Experimental: Once the particles were generated and washed they were introduced orally into experimental animals (male Sprague-Dawley adult rats (200-250 g wt., 12-15 weeks old, Harlow). Ten animals were used for each group. About 1 mg of dry weight of nanoparticles in the reaction mixture has been administered orally into the stomach of each animal. The nonloaded (#8) nanoparticles were also administered to control animals, in addition to a soluble antigen (OVA)(#9). ELISA assay of secretory IgA and serum IgG antibodies was carried out as described [Challacombe, et al., Enhanced secretory IgA and systemic IgG antibody response after oral immunization with biodegradable microcapsules containing antigen. Immunology 76: 164-168 (1992)]. Primary and secondary immunization protocol was used, consisting of two immunizations at week 0 and at week 4. […] In another set of experiments nonloaded nanoparticles (no OVA) were separately tested in simulated gastric (pH 2) and intestinal (pH 8.3) solutions for their stability. […] Similar results in terms of antibodies and release characteristics were obtained for tetanus toxoid antigen.
substance,measurement,setting,value
"ovalbumin (egg albumin) [Sol OVA, soluble ovalbumin antigen from Sigma]","Response to oral delivery of nanoparticulate OVA antigen, Mean","Day 28, rats",75.0
same,"Response to oral delivery of nanoparticulate OVA antigen, Mean","Day 56, rats",550.0
